Results published in patent US20070037752A1, “Novel alanyl-amino peptidase inhibitors for functionally influencing different cells and treating immunological, inflammatory, neuronal, and other diseases” (priority 2003, published 2007).
Like-named read-outs stand apart in the source and are kept apart here. One block for each compound: values may come before it.

Target: alanyl aminopeptidases (APN) (Homo sapiens, UniProt P15144)
Assay: Inhibition of alanyl aminopeptidase enzymatic activity, fluorogenic substrate (Ala)2-rhodamine 110
Type: biochemical
Experimental: The inhibition characteristics measured are referred to as IC-50 values or ID50 values (the latter marked with “*”) for said enzyme. The enzymatic activity was determined by means of the fluorogenic substrate/product (Ala)2-rhodamine 110.

[1] = Table 4, unstarred values, read-out: IC50APN
[2] = Table 8, unstarred values, read-out: IC50APN
[3] = Table 9, unstarred values, read-out: IC50APN
[4] = Table 3, unstarred values, read-out: IC50APN
[5] = Table 3, starred values = ID50, read-out: ID50 APN (values marked with *)

Sequence of alanyl aminopeptidases (APN) (P15144 whole entry, species assumed): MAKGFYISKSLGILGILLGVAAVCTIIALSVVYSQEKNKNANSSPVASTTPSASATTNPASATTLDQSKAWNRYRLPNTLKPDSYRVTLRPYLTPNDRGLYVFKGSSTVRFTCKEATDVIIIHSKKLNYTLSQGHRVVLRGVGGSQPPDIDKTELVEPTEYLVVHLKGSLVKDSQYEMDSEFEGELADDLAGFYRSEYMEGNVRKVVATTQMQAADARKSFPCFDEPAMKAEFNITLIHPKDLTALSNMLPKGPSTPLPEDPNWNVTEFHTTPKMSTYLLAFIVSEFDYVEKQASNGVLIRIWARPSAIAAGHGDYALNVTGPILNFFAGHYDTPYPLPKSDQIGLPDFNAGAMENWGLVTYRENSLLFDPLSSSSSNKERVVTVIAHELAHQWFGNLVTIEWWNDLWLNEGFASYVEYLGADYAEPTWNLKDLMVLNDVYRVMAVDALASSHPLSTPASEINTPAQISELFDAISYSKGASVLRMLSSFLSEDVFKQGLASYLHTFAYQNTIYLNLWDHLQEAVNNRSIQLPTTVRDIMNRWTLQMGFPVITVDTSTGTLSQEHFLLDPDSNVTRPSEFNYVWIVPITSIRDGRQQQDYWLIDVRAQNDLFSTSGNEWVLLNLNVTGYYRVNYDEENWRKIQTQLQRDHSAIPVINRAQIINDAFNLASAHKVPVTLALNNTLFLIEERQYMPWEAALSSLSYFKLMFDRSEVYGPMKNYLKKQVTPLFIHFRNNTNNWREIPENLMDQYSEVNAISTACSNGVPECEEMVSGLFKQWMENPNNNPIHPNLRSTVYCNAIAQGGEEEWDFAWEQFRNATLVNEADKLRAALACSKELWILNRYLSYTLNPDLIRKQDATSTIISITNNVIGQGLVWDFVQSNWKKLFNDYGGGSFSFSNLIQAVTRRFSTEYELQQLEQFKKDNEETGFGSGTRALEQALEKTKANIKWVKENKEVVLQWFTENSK

SMILES: CCOC(=O)C(NC(=O)c1cccc(Cl)c1)(Nc1ccc(OC)cc1OC)C(F)(F)F (stereo not shown) [A12.040]
IC50 (Table 12, read-out: IC50APN): 21.7 µM

SMILES: CCCOC(=O)c1cc(-c2ccc(/C=C3\C(=O)N(CCCO)C(=O)C(C#N)=C3C)o2)ccc1Cl [A9.064]
IC50 [3]: 23.8 µM

SMILES: Cn1nc(-c2cccs2)nc2c(=O)n(C)c(=O)nc1-2 [A3.133]
IC50 [4]: 25 µM

SMILES: CCN(CC)C(=O)/C(=C/c1ccco1)NC(=O)c1ccccc1 [A3.054]
IC50 [4]: 12.8 µM

SMILES: COC(=O)c1ccc(-c2ccc(/C=C3\C(=O)N(CCCO)C(=O)C(C#N)=C3C)o2)cc1 [A13.003]
IC50 (Table 13, read-out: IC50APN): 5 µM

SMILES: N/C(=N/OS(=O)(=O)c1ccc(C(F)(F)F)cc1)C1CSCCS1 (stereo not shown) [A6.006]
IC50 (Table 6, read-out: IC50APN): 13.4 µM

SMILES: CCCOC(=O)c1cc(-c2ccc(/C=C3/C(=O)N(CC(C)O)C(=O)C(C#N)=C3C)o2)ccc1Cl (stereo not shown) [A13.017]
IC50 (Table 13, read-out: IC50APN): 32 µM

SMILES: CC1=NC(N)=NC(C)(C)N1c1c(Cl)cccc1Cl [A8.034]
IC50 [2]: 59.8 µM

SMILES: Cc1cccc(C(=O)Nc2ccc(C(=O)N/N=C/c3ccc(C)o3)cc2)c1 [A3.106]
IC50 [4]: 20.2 µM

SMILES: Cc1ccc(/C=N/NC(=O)c2nnn(-c3nonc3N)c2C)o1 [A3.041]
IC50 [4]: 10.9 µM

SMILES: CCc1c(C)nc2c(OC)cccc2c1SCC(=O)O [A9.082]
IC50 [3]: 31.1 µM

SMILES: CC(=O)c1cccc(-c2ccc(/C=C3/C(=O)N(CCCO)C(=O)C(C#N)=C3C)o2)c1 [A12.034]
IC50 (Table 12, read-out: IC50APN): 18.2 µM

SMILES: CC1=C(C#N)C(=O)N(CCCO)C(=O)/C1=C\c1ccc(-c2ccc(Br)cc2)o1 [A9.037]
IC50 [3]: 16 µM

SMILES: COc1ccc(/C=N/NC(=O)C2=C(C)Nc3ccccc3S2)cc1Cn1nc(C)c(Br)c1C [A3.016]
IC50 [4]: 4.8 µM

SMILES: N/C(=N\[N+](=O)[O-])N/N=C/c1ccco1 [A11.001]
IC50 (Table 11, read-out: IC50APN): 7.6 µM

SMILES: CC(=O)n1cc(/C=C/C=N/NC(=O)CC#N)c2ccccc21 [A4.113]
IC50 [1]: 35.5 µM

SMILES: COc1ccc(Cl)cc1NC(O)CCN1C(=O)C2C3C=CC(C3)C2C1O (stereo not shown) [A12.026]
IC50 (Table 12, read-out: IC50APN): 13.4 µM

SMILES: CC1=C(C#N)C(O)=NC(=O)/C1=C/c1ccc(-c2ccc(Cl)cc2Cl)o1 [A3.197]
IC50 [4]: 32.4 µM

SMILES: COc1ccc(C2NCCS2)cc1 (stereo not shown) [A3.035]
IC50 [4]: 9.5 µM

SMILES: COc1ccc(C2NCCS2)cc1OC (stereo not shown) [A3.316]
IC50 [4]: 92.1 µM

SMILES: COc1ccc(C2C(C(=O)c3ccccc3)C(c3ccccc3)C(C(=O)NCc3ccc(F)cc3)N2C(=O)NC2CCCCC2)cc1 (stereo not shown) [A3.342]
IC50 [5]: 231 µM

Continued, values first:

IC50 [1]: 30.1 µM
SMILES: O=C(N/N=C\c1ccco1)c1cnccn1 [A4.097]

IC50 [2]: 6.7 µM
SMILES: CCc1cccc(CC)c1NC(=S)N/N=C1\C(=O)N(CN2CC(C)CC(C)C2)c2ccccc21 (stereo not shown) [A8.004]

IC50 (Table 7, read-out: IC50APN): 36.9 µM
SMILES: O=C1C(Cc2ccc3[nH]ccc3c2)NC(=S)N1c1ccccc1 (stereo not shown) [A7.012]

IC50 [3]: 23.1 µM
SMILES: CCOC(=O)C1=C2SCC(=O)N2C(N)=C(C#N)C1 [A9.061]

IC50 [4]: 3 µM
SMILES: O=C(Nc1cccc(/N=C/c2cc(I)cc(I)c2O)c1)c1ccco1 [A3.009]

IC50 [4]: 27.4 µM
SMILES: Cc1nn(-c2ccccc2)c(C)c1-c1cc(C(=O)N/N=C/c2ccco2)[nH]n1 [A3.167]

IC50 (Table 12, read-out: IC50APN): 19 µM
SMILES: O=C(N/C(=C\c1ccco1)C(=O)N1CCCC(CO)C1)c1ccccc1 (stereo not shown) [A12.035]

IC50 [3]: 90.2 µM
SMILES: CCCOC(=O)C(NC(=O)c1ccc(OC)cc1)(N1CCOCC1)C(F)(F)F (stereo not shown) [A9.115]

IC50 [4]: 4.5 µM
SMILES: Cc1cc(C)c(C)c(C(=O)COC(=O)c2ccc(-n3c(C)ccc3C)cc2)c1C [A3.014]

IC50 (Table 12, read-out: IC50APN): 28.1 µM
SMILES: N#C/C(=C\c1ccc(N2Cc3ccccc3C2)cc1)C(=O)NCC1CCCO1 (stereo not shown) [A12.047]

IC50 [3]: 9.8 µM
SMILES: Cc1ccc(/C=N\NC(=O)c2cnccn2)o1 [A9.020]

IC50 [4]: 68 µM
SMILES: CC(=O)C1C(c2ccc(N(C)C)cc2)C2C(=O)N(C3CCCCC3)C(=O)N2C1c1sccc1C (stereo not shown) [A3.294]

IC50 (Table 6, read-out: IC50APN): 8.4 µM
SMILES: CC1CCCN(S(=O)(=O)c2ccc(NC(=O)/C=C/c3ccco3)cc2)C1 (stereo not shown) [A6.002]

IC50 [1]: 19.8 µM
SMILES: O=C(N/N=C/c1cc(Br)cc(Br)c1OC(=O)c1ccccc1)/C(=C/c1ccc2c(c1)OCO2)NC(=O)c1ccccc1 [A4.052]

IC50 (Table 12, read-out: IC50APN): 6.3 µM
SMILES: COC(=O)c1cccc(-c2ccc(/C=C3\C(=O)N(CCO)C(=O)C(C#N)=C3C)o2)c1 [A12.007]

IC50 [3]: 21.2 µM
SMILES: O=C(O)c1ccc(-n2c(/C=C/c3ccco3)nc3ccccc3c2=O)cc1 [A9.052]

IC50 [3]: 29.3 µM
SMILES: C=CCN1C(=O)C(C#N)=C(C)/C(=C\c2ccc(-c3cc(C)c(C)cc3[N+](=O)[O-])o2)C1=O [A9.076]

IC50 [4]: 13.5 µM
SMILES: O=C(N/C(=C\c1ccco1)C(=O)N1CCOCC1)c1ccco1 [A3.058]

IC50 [1]: 38.4 µM
SMILES: CC(=O)Nc1ccc(C(=O)N/N=C/c2ccco2)cc1 [A4.123]

IC50 [5]: 75.8 µM
SMILES: O=C(N/N=C/c1ccco1)c1cc(-c2ccccc2Cl)n[nH]1 [A3.303]

IC50 [4]: 32.5 µM
SMILES: O=C(N/N=C/c1ccco1)c1ccc(NC(=O)c2ccccc2Cl)cc1 [A3.199]

IC50 [1]: 47.3 µM
SMILES: O=C(COc1ccc2ccccc2c1Br)N/N=C/c1ccco1 [A4.137]

IC50 [4]: 44.2 µM
SMILES: O=C(N/N=C1/C(=O)Nc2ccc(F)cc21)/C(=C/c1ccccc1)NC(=O)c1ccccc1 [A3.242]

IC50 (Table 12, read-out: IC50APN): 19 µM
SMILES: CCOC(=O)C(NC(=O)c1ccccc1)(Nc1ccc(OC)cc1OC)C(F)(F)F (stereo not shown) [A12.036]

IC50 [1]: 45.4 µM
SMILES: O=C(N/N=C/c1cccc([N+](=O)[O-])c1)c1ccco1 [A4.132]
